Measurements from patent US20170367390A1, “USE OF ELLAGIC ACID DIHYDRATE IN FOOD PRODUCTS AND NUTRACEUTICALS” (HALO LIFE SCIENCE, LLC, priority 2014, published 2017).
Entries after “also recorded” stand apart in the source; their conditions may differ.

Legend:
[1] = tested on: mouse myoblast C2C12 cells; assay: Glucose uptake, 2-NBDG labeling, flow cytometry, C2C12; type: cell-based
Procedure: Cellular assays were performed using mouse myoblast C2C12 cells and MEF cells. […] Increased glucose uptake was indicated as increasing signal of 2-NBDG ([…]) in cells. Glucose uptake assays were carried out in a final incubation volume of 50 μl consisting of, 2-NBDG), (100 μM) in 1× Phosphate Buffered Saline w/Ca+, Mg+ (PBS++). The same buffer was used for washing cells. Insulin was used as a positive control. All testing compounds were prepared in 10% DMSO and diluted 1:100 for a final concentration of 0.1% DMSO (vehicle). Cells were culture to 70-90% confluence and then washed twice with PBS++. Cells were incubated for 30 minutes at 37° C. in PBS++. Nuclear stain, HCS CellMask stain (blue, Invitrogen), and/or testing compounds (ellagic acid dihydrate, insulin, or vehicle) were added. Cells were incubated for 30 min at 37° C. Cells were washed twice with PBS++ and incubated with 2-NBDG for 10 minutes. Cells were washed thrice with PBS++ and then imaged in PBS++. Alternatively, the final PBS wash was removed and cells were incubated with Accutase (Invitrogen) for 10 min at 37° C., neutralized with 10% FBS in 1×PBS, and analyzed by flow cytometry. An additional experiment was performed to measure glucose uptake in C2Cl2 cells exposed to metformin, insulin and ellagic acid dihydrate 2 (batch 2). FIG. 5C.

[2] = tested on: p44/42 MAPK; assay: p44/42 MAPK:Phos p44/42 MAPK ratio by immunocytochemistry, high-content imaging in C2C12; type: cell-based, mouse; details: serum starved C2C12, 30 minutes; 400 nM, 0.04 nM
Procedure: (§1) Stimulation of AKT pathways and MAPK pathways in ellagic acid dihydrate, metformin, and insulin treated cell cultures was performed. Insulin stimulates glucose uptake into cells by increasing GLUT4 activation, and AKT, specifically phos-AKT, signaling alters GLUT4 translocation. […] Cellular assays were performed using mouse myoblast C2C12 cells. Relative protein levels of AKT:phos AKT and p44/42 MAPK:phos p44/42 MAPK were determined.
Serum starved cells (1 hr) were treated for 30 minutes with each of the tested compounds. Ratios of phosphorylated to non-phosphorylated proteins were determined using immunocytochemistry labeling (anti-AKT, anti-Phos AKT; or anti-p44/42 MAPK, anti-Phos p44/42 MAPK) on a high-content imaging system (Operetta, Perkin Elmer) using the fluorescent signal of anti-rabbit Alexa 647. Increased phosphorylation is indicated as decrease in signal of AKT:Phos AKT ratio (log 2 scale) and p44/42 MAPK:Phos p44/42 MAPK ratio (log 2 scale) relative to vehicle treated cells.

[3] = tested on: AKT; assay: AKT:Phos AKT ratio by immunocytochemistry, high-content imaging in C2C12; type: cell-based, mouse; details: serum starved C2C12, 30 minutes; 4 nM-4 μM for insulin and ellagic acid dihydrate
Procedure: as §1, with “[…] Serum starved cells (1 hr) were treated for 30 minutes with each” for “Relative protein levels”, “the tested compounds.” for “AKT:phos AKT and p44/42 MAPK:phos p44/42 MAPK were determined.”

[4] = tested on: MEF cells; assay: Glucose uptake, 2-NBDG labeling, high-content imaging (Operetta), MEFs; type: cell-based, mouse
Procedure: Increased glucose uptake was indicated as increasing signal of 2-NBDG ([…]) in cells. Glucose uptake assays were carried out in a final incubation volume of 50 μl consisting of, 2-NBDG), (100 μM) in 1× Phosphate Buffered Saline w/Ca+, Mg+ (PBS++). The same buffer was used for washing cells. Insulin was used as a positive control. All testing compounds were prepared in 10% DMSO and diluted 1:100 for a final concentration of 0.1% DMSO (vehicle). Cells were culture to 70-90% confluence and then washed twice with PBS++. Cells were incubated for 30 minutes at 37° C. in PBS++. Nuclear stain, HCS CellMask stain (blue, Invitrogen), and/or testing compounds (ellagic acid dihydrate, insulin, or vehicle) were added. Cells were incubated for 30 min at 37° C. Cells were washed twice with PBS++ and incubated with 2-NBDG for 10 minutes. Cells were washed thrice with PBS++ and then imaged in PBS++. Alternatively, the final PBS wash was removed and cells were incubated with Accutase (Invitrogen) for 10 min at 37° C., neutralized with 10% FBS in 1×PBS, and analyzed by flow cytometry. An additional experiment was performed to measure glucose uptake in C2Cl2 cells exposed to metformin, insulin and ellagic acid dihydrate 2 (batch 2). FIG. 5C. Glucose uptake in ellagic acid dihydrate treated cell culture was measured and compared to glucose uptake under insulin or ellagic acid treatment. […] Flow cytometry results were run in triplicate with 1000 cells per batch.

[5] = Saturation of test compound in 100% DMSO; type: physicochemical
Procedure: General Procedure. For Examples 2 through 7, all test compounds of interest were initially dissolved in 100% DMSO. Estimated saturation occurred at approximately 4 mM for ellagic acid dihydrate. The saturated solution was diluted 1:10 in 1×PBS; creating a 100× stock solution of 400 μM ellagic acid dihydrate. Working concentrations (1×), 4 μM, and more dilute concentrations of ellagic acid dihydrate were created by 1:10 dilutions into 0.1% DMSO. The resulting six dilutions ranged from 4 μM to 0.04 nM. Dose curves were analyzed using either Harmony software on the Operetta (Perkin Elmer) or Excel (Microsoft) for flow cytometry, which was performed on a BD Accuri (BD Biosciences).

[6] = Activity level in mice; type: in vivo, mouse; details: predicted from in vitro data of Example 5
Description: Activity levels in mice treated with ellagic acid dihydrate may be quantified by several procedures, such as those outlined in Turri, M. et al.; QTL Analysis Identifies Multiple Behavioral Dimensions in Ethological Tests of Anxiety in Laboratory Mice; Current Biology; 2001; 11(10): 725-734. Two examples of procedures taught therein follows. Gross Locomotor Activity in Home Cage: Mice are caged singly several days prior to home cage activity monitoring and subsequent testing. Activity in home cages are measured during the first 2 hours of the dark cycle on two consecutive days. Two infrared photo emitter-detector pairs, located outside the clear plastic home cage that divide the cage into three equal areas, are used to record gross locomotor activity on the floor of the home cage as the animal breaks the photo beams. The beam-break activity score consists of the square root of the number of beam breaks for each detector summed across the two test days. Magnitude of Activity in Home Cage: Mice are caged singly several days prior to home cage activity monitoring and subsequent testing. Activity in home cages are measured during the first 2 hours of the dark cycle on two consecutive days. An infrared motion detector located above the top of the home cage is employed to converts all motion sensed within the home cage into arbitrary units, based on the magnitude of activity detected.

For `O.O.O=c1oc2c(O)c(O)cc3c(=O)oc4c(O)c(O)cc1c4c23` [ellagic acid dihydrate], the “increase in glucose uptake compared with metformin” value ([1]; C2C12, at 4000 nm, FIG. 5C (ellagic acid dihydrate batch 2)) was “greater increase in glucose uptake than metformin”, the “dose effect for increasing glucose uptake” value ([1]; C2C12, flow cytometry, 2-NBDG) was “dose effect for increasing glucose uptake” and the “glucose uptake (2-NBDG signal) relative to vehicle” value ([1]; C2C12, flow cytometry, vehicle 0.1% DMSO) was “significantly greater than vehicle treated”. For the same compound, the “increase in glucose uptake in myoblasts relative to fibroblasts” value ([1]; C2C12 myoblasts versus MEF fibroblasts) was about 4 ×, the “glucose uptake relative to insulin” value ([1]; myoblasts (C2C12), at most concentrations tested / equal concentrations, dihydrate) was “significantly more glucose uptake relative to insulin; also recorded: exceeded the uptake induced by insulin” and the “p44/42 MAPK:Phos p44/42 MAPK ratio relative to vehicle” value [2] was “increase in p44/42 MAPK”. For the same compound, the “AKT:Phos AKT ratio (log 2 scale) relative to vehicle treated cells” value [3] was “increase in AKT relative to Phos-AKT signal”, the “dose effect for increasing glucose uptake” value [4] was “dose effect for increasing glucose uptake” and the “glucose uptake (2-NBDG signal)” value ([4]; versus vehicle (Neg, 0.1% DMSO)) was “significantly greater than vehicle treated (Neg, 0.1% DMSO) or Insulin treated cells”. The Estimated saturation [5] was “approximately 4 mM” and the “activity level compared to mice treated with ellagic acid” value [6] was “significantly greater activity level”.
